Data as given in paper PMC11178787, “Development of a natural product optimization strategy for inhibitors against MraY, a promising antibacterial target” (Nature Communications, 2024).
Converted amounts (≈) assume the structure as drawn.

Legend:
K. pneumoniae ATCC 13883 = tested on: T1, K. pneumoniae ATCC 13883; assay: microbe, parasite or virus in culture; conditions: Klebsiella pneumoniae, ATCC13883
T1 construct: ATCC 13883
Procedure: (§1) MICs were determined by a microdilution broth method as recommended by the CLSI with MHB-II. For MICs of stable analogues, a 2-fold dilution of each compound was prepared in DMSO at 100-fold of the final concentration. The strains were inoculated with 5 × 10^5 cfu/mL in 96-well plates (each 100 μL/well), and 1 μL of DMSO solutions of the samples were added (contained less than 1% DMSO). The plates were incubated at 37 °C for 18 h and then MICs were determined. MICs of stable analogues in Table 1 were the highest value in three trials. MICs in Supplementary Table 1 were determined in one trial.  Fig. 2 Results of biological evaluations of hydrazone library. a General structures of hydrazine fragment moiety are shown. Each hydrazine class are represented by different colours (green; BZ, cyan; PA, grey; AC, yellow; AA, orange; LA). b–h MraY inhibitory activity and antibacterial activity of the hydrazone library. The bar graphs show the relative enzyme activity with DMSO as 100% when the compound is treated at given concentration (b,c; TUN at 100 nM, d,e; MRY at 10 nM, f.g; MRD at 100 nM, h; CAP at 1000 nM. n = 1), with the lower bars indicating higher inhibitory activity. The colour of the bars corresponds to Fig. 2a. […] Data of control compounds (van: vancomycin, col: colistin) are shown left column in each panel. E. faecium ATCC 35667, S. aureus ATCC 29213, P. aeruginosa ATCC 27853, K. pneumoniae ATCC 13883, E. cloacae ATCC 13047, A. baumannii ATCC 19606, E. coli ATCC 25922.

E. coli ATCC 25922 = tested on: T2, E. coli ATCC 25922; assay: microbe, parasite or virus in culture; conditions: Escherichia coli, ATCC25922
T2 construct: ATCC 25922
Procedure: as §1

## CC1(C)S[C@@H]2[C@H](NC(=O)[C@H](N)c3ccccc3)C(=O)N2[C@H]1C(=O)O [ampicillin]
K. pneumoniae ATCC 13883
  MIC: > 50 µM
E. coli ATCC 25922
  MIC: 50 µM (≈ 17.5 µg/mL)

## CN[C@H](CC(C)C)C(=O)N[C@H]1C(=O)N[C@@H](CC(N)=O)C(=O)N[C@H]2C(=O)N[C@H]3C(=O)N[C@H](C(=O)N[C@H](C(=O)O)c4cc(O)cc(O)c4-c4cc3ccc4O)[C@H](O)c3ccc(c(Cl)c3)Oc3cc2cc(c3O[C@@H]2O[C@H](CO)[C@@H](O)[C@H](O)[C@H]2O[C@H]2C[C@](C)(N)[C@H](O)[C@H](C)O2)Oc2ccc(cc2Cl)[C@H]1O [vancomycin]
K. pneumoniae ATCC 13883
  MIC: > 50 µM
E. coli ATCC 25922
  MIC: > 50 µM
